Experimental data published in patent US7744854B2, “Method for optimizing cancer therapy by monitoring maturation of tumor associated vasculature by selenium” (Health Research, Inc., priority 2006, dated 2010).
Entries after “also recorded” stand apart in the source; their conditions may differ.

What was measured:
[1] = system: Delta-like 4 ligand (DLL4); assay: Western blot of FaDu xenografts: DLL4; type: in vivo; settings: selenium for 14 days
From the text: (§1) MSC up-regulates Thrombospondin-1 (TSP-1) a potent inhibitor of angiogenesis and important controller of tumor growth and its receptor CD36 (FIG. 8A), HIF-1α expression (FIG. 8B) and relative intensity (FIG. 8C). To assess the effects of selenium on TVM, the expression of molecular markers associated with tumor hypoxia, drug resistance and increased proliferation, namely, hypoxia-inducible factor 1∝ (HIF-1∝), Cyclooxygenase-2 (Cox-2), inducible nitric oxide, propyl hydroxyl domain (PHD) and vascular endothelial growth factor (VEGF) were evaluated in xenograft tumors. Selenium was administered for 14 days. Western blot analysis was performed to determine the effect of MSC treatment on different antiangiogenic markers TSP-1, CD36, Delta-like 4 ligand (DLL4) and hypoxia inducible factor HIF-1α Data in FIG. 8A indicate that CD36 is up regulated in FaDu xenografts treated with MSC. Along with the CD36 MSC up regulates TSP-1, which is known to be involved in the inhibition of angiogenesis. Further, MSC down-regulates DLL4 in FaDu xenografts.

FaDu xenografts [2] = assay: Intratumoral microvessel density (CD31 immunostaining) in FaDu xenografts; type: in vivo; settings: 0.2 mg/mouse/day, after 2 weeks, p<0.05
From the text: Microvessels were counted based on endothelial cells immunostaining with CD31 Mab on paraffin sections, after zinc fixative (p<0.05 in each system).

FaDu xenografts [3] = assay: Hoechst 33342 / DiOC7 fluorescent dye uptake, functional tumor vasculature; type: in vivo, mouse; settings: post 14 days MSC treatment
Procedure: Initial studies on uptake of fluorescent dyes Hoechst 33342 (i.v at 15 mg/kg in sterile phosphate buffered saline) followed 20 minutes later with DiOC7 (i.v. at 1 mg/kg in dimethyl sulfoxide) in mice bearing A253 and FaDu xenografts are indicative of tumor vascular maturation by MSC. Uptake of both dyes is indicative of functional vasculature while uptake of only one dye is indicative of […] vasculature. […] Abnormal vasculature shut off when challenged with dyes similar to Hoechst 33342 while blood flow through ‘normalized’ vasculature is not affected.

HNSCC xenograft FaDu = assay: Dose and schedule dependence of therapeutic synergy with irinotecan in FaDu xenograft; type: in vivo
From the text: A minimum 7 days pretreatment with MSC is required to achieve optimal therapeutic synergy with a representative anticancer drug—irinotecan. […] Daily pretreatment for 7-14 days was critical to achieve the selective effects of selenium. This reflects the time required for priming of tumor vasculature by MSC in order to see the therapeutic end results.

Thrombospondin-1 (TSP-1) = assay: Western blot of FaDu xenografts: TSP-1; type: in vivo; settings: selenium for 14 days
From the text: as §1

[4] = system: endothelial cells in the angiogenic microvessels; assay: CD31/Tunnel double staining of angiogenic microvessels; type: in vivo, mouse
From the text: (§2) Thus, selenium inhibits proliferation of endothelial cells.

VEGF = VEGF expression (WB) and secretion (ELISA) in FaDu tumor cells in vitro; type: cell-based
From the text: as §2

FaDu tumors = assay: CD31/α-SMA double immunohistochemical staining of FaDu tumors; type: in vivo, mouse; settings: day 14 of MSC treatment
From the text: MSC treatment results in reduction of tumor vascular leakiness as reflected by the slope of the ΔR1 values in FaDu xenografts. This could be a result of tumor vascular maturation as determined by the double immunohistochemical staining for the pan endothelial cell adhesion molecule (PECAM; CD31) and α-SMA in control and MSC treated mice (Day 14 of MSC treatment).
This is in agreement with our estimates of MVD as MSC treatment does lead to a reduction in MVD. However, the decrease in permeability could be a result of the ‘maturation’ effect of MSC. To validate findings from the imaging studies, immunohistochemical staining for the pan endothelial cell adhesion molecule (PECAM; CD31) along with staining with alpha-smooth muscle actin was performed in control and MSC-treated mice (Day 14 after treatment).

tumor microvessels = assay: Histopathological studies for direct antivascular effect; type: in vivo, mouse; settings: histopathology
From the text: as §2

CD36 = assay: Western blot of FaDu xenografts: CD36; type: in vivo; settings: selenium for 14 days
From the text: as §1

[5] = system: HNSCC xenografts FaDu and A253; assay: Tumor vascular maturation index and mean vessel lumen area; type: in vivo; settings: vs untreated control tumors
From the text: FIG. 5A summarizes effect of MSC treatment on tumor vascular maturation index (VMI) and on the mean tumor vessel lumen area (FIG. 5B) in HNSCC xenografts FaDu and A253. […] Treatment with MSC makes the arrangement less chaotic and more ‘normalized’ in arrangement.

[6] = Tumor drug uptake by HPLC in FaDu xenografts; type: in vivo
Procedure: FIGS. 6A and 6B show the effect of 14 days pre-treatment with MSC prior to drug administration on tumor drug uptake (2 hours post i.v.) as determined by HPLC in FaDu xenografts for CPT-11 and doxorubicin respectively. […] The drug concentration in the normal tissues studied such as liver, plasma.

FaDu xenografts [7] = assay: DCE-MRI (albumin-GdDTPA) of tumor vascular permeability and volume in FaDu xenografts; type: in vivo, mouse
Procedure: FaDu xenograft bearing mice were used. MSC was administered for 14 days. Mice were imaged using a 4.7-T/33-cm horizontal bore magnet (GE NMR Instruments, Fremont, Calif.) incorporating AVANCE digital electronics [Bruker Biospec, ParaVision 3.0.2 OS); Bruker Medical, Billerica, Mass.], a removable gradient coil insert (G060; Bruker Medical) generating a maximum field strength of 950 mT/m, and a custom-designed radiofrequency transreceiver coil. Animals were anesthetized before imaging with a ketamine/xylazine mixture (10:1) at a dose of […], secured in a mouse coil chamber, and positioned on a scanner. The animals were kept warm in the magnet using a circulating water bath maintained at 37 jC. […] T1 relaxation rates were determined using a saturation recovery, fast spin echo sequence with an effective echo time (TE) of 10 milliseconds, and a TR ranging from 360 to 6000 milliseconds [FOV=32×32 mm, slice thickness=1.0 mm, matrix size=128×96 pixels, number of excitations (NEX)=3]. […]
Image processing and analysis were carried out using commercially available software (ANALYZE PC, Version 5.0; Biomedical Imaging Resource, Mayo Foundation, Rochester, Minn.) (Matlab's curve-fitting toolbox, Matlab Version 7.0; Math Works, Inc., Natick, Mass.). […] Percent tumor enhancement (E) was then calculated from relative intensity (RI) […]

[8] = system: matrigel plug containing cultured FaDu tumor cells; assay: Matrigel plug (s.c.) containing cultured FaDu tumor cells, microvessel count; type: in vivo; settings: 0.2 mg/mouse/day, after 1 week, 10^6 cells s.c., p<0.05
From the text: as §2

HIF-1α = HIF-1α expression in hypoxic FaDu tumor cells in vitro; type: cell-based; settings: 24 hr hypoxic conditions, preliminary results
From the text: To determine whether HIF-1α is a target for MSC, FaDu tumor cells were exposed in vitro for 24 hr to hypoxic conditions and analyzed for HIF-1α expression to FaDu cells. […] The data in FIG. 8C is graphic representation of the relative intensity of each marker.

[9] = combination treatment with SN-38
[10] = 14 days MSC pre-treatment, 2 hours post i.v., vs monotherapy

C[Se]C[C@H](N)C(=O)O [MSC, methylselenocysteine]
DLL4 expression [1]: down-regulates | intratumoral microvessel density (MVD) (FaDu xenografts [2]): decreases | vasculature with uptake of both dyes ('normalized' functional vasculature) (FaDu xenografts [3]): approximately 80% | minimum pretreatment required for optimal therapeutic synergy with irinotecan (HNSCC xenograft FaDu; daily MSC): ≥ 7 days | therapeutic effect (HNSCC xenograft FaDu; with irinotecan): dose and schedule dependent | TSP-1 expression (Thrombospondin-1 (TSP-1)): up regulates | apoptotic endothelial cell nuclei in angiogenic microvessels [4]: did not show apoptotic endothelial cell nuclei | VEGF expression (WB) (VEGF; [9]): down regulates | VEGF secretion (ELISA) (VEGF; [9]): down regulates | VEGF secretion (VEGF; selenium alone): decreased | pericyte recruitment / α-SMA staining of tumor vasculature (FaDu tumors): Increased pericyte recruitment; also recorded: increased staining of α-SMA | direct antivascular effect (microvessel necrosis, endothelial cell death, microthrombus formation) (tumor microvessels): did not show any signs of other direct antivascular effect | CD36 expression (CD36): up regulated | mean tumor vessel lumen area ([5]; p<0.0001): reduction | tumor vascular maturation index (VMI) ([5]; p<0.05): significant increase | intratumoral drug concentration, CPT-11 (SN-38 per FIG. 6A) [6, 10]: more than doubling | intratumoral drug concentration, doxorubicin [6, 10]: more than doubling | drug concentration in normal tissues ([6]; liver, plasma, kidney, combination with MSC vs monotherapy): did not show a significant increase | tumor vascular volume (FaDu xenografts [7]; 14 days MSC treatment): statistically significant decrease | tumor vascular permeability (leakiness; slope of ΔR1) (FaDu xenografts [7]; 14 days MSC vs volume matched control): reduction; also recorded: statistically significant decrease | microvessel density in matrigel plug containing FaDu tumor cells [8]: decreases | HIF-1α expression (HIF-1α): significant inhibition
